Results published in patent US10045939B2, “Unit doses, aerosols, kits, and methods for treating heart conditions by pulmonary administration” (InCarda Therapeutics, Inc., priority 2009, dated 2018).
Structures can show the parent of a compound that is named as a salt. Where two headings read alike, the source gives them in different places.

Experiments:
[1] = cited from earlier work
[2] = tested on: induced supraventricular tachycardia; test: Induced supraventricular tachycardia (SVT) model in anesthetized dogs, intratracheal (IT) vs intravenous administration; type: in vivo, dog; settings: for cardiovascular effect when given intratracheally (summary): intratracheal, summary of study
Experimental: A venous catheter was placed in a peripheral vessel (i.e., cephalic) for administration of anesthetic(s). For anesthesia induction, all animals were given a combination of diazepam (˜0.5 mg/kg) and ketamine (˜10 mg/kg) intravenously through this venous catheter. Anesthesia was sustained until completion of the study with an intravenous infusion of pentobarbital (5-15 mg/kg/hr). Following induction, animals were endotracheally intubated and mechanically ventilated (˜12 breaths/min with a tidal volume of 200-300 mL).
Subsequently, a cut-down on a jugular vein permitted the introduction of a pacing lead into the right atrium. Similarly, for arterial pressure monitoring, a solid-state micromanometer catheter (Millar Instruments) was advanced into the aortic root via a cut-down over an artery (e.g., femoral, carotid). Transthoracic electrodes forming ECG lead II was placed. For vehicle/test article delivery, a 4F catheter was introduced through the trachea and wedged into a small airway, and a venous catheter was placed in a peripheral vessel (i.e., cephalic).
Following instrumentation/hemodynamic stabilization (for at least 15 minutes), right atrial pacing (5-10 V, 40 Hz, 2 ms pulses) was established in order to induce supraventricular tachycardia (SVT); pacing and SVT was sustained throughout the duration of the experiments. Approximately 5 minutes after onset of SVT and while monitoring ECG/arterial pressure continuously, the animals were administered three escalating doses (one at a time) of a test article; each dose was delivered as a bolus (˜3 mL) directly into a small airway through the intratracheal catheter (IT). Following dosing, the heart-rate (HR) and arterial pressure response were monitored for 15 minutes.
Subsequently (once the response to three IT doses had been recorded), hemodynamic recovery was allowed for approximately 30 minutes, and the electrocardiographic/hemodynamic response to the highest test-article dose was re-evaluated; however, for comparison purposes, this dose was delivered intravenously (IV).
Overall, two groups/test-articles were studied, and up to two animals were assigned to each group (n=2/group): one group received esmolol HCL (0.5-1.0 mg/kg, ESM), while the other received adenosine (0.25-1.0 mg/kg, ADN); only one test article was administered to per animal.

[3] = tested on: induced atrial fibrillation; test: Induced atrial fibrillation model in anesthetized dogs, intratracheal (IT) administration; type: in vivo, dog; settings: for cardiovascular effect when given intratracheally (summary): summary of study; for conversion of atrial fibrillation to normal sinus rhythm: pulmonary (intratracheal/inhalation route)
Experimental: A venous catheter was placed in a peripheral vessel (i.e., cephalic) for administration of anesthetic. For anesthesia induction, all animals were given morphine sulfate (˜2 mg/kg) and a bolus of alpha chloralose (˜100 mg/kg) intravenously through the venous catheter. Anesthesia was sustained with alpha chloralose (35-75 mg/kg/hour IV), until completion of the study (<2 hours). Following induction, animals were endotracheally intubated and mechanically ventilated (˜12 breaths/minute with a tidal volume of 200-300 mL). Subsequently, a cut-down on a jugular vein permitted introduction of a pacing lead into the right atrium. Transthoracic electrodes forming ECG lead II were placed. For test/vehicle article delivery, a 4F catheter was introduced through the trachea and wedged into a small airway, and a venous catheter was placed in a peripheral vessel (i.e., cephalic). Following instrumentation and hemodynamic stabilization (for at least 15 minutes), phenylephrine was continuously infused (2 ug/kg/min IV) to elevate the systemic arterial pressure and increase vagal (parasympathetic) efferent activity for the duration of the study. Approximately 5 min after administration of this parasympathomimetic was started; the following experiments were performed: First, the right atrium was paced (20 V, 40 Hz, 4 ms pulse) for 15 minutes, and following pacing discontinuation, atrial fibrillation ensued. Approximately 3 minutes after pacing was stopped and atrial fibrillation was observed, the animals were given vehicle (˜3 mL) intra-tracheally (IT); the duration between dosing and, (if observed) the return to sinus rhythm and/or the ventricular rate was noted. Observations were made for up to 10 minutes. Subsequently, atrial fibrillation was re-established via 15-minute pacing cycle(s), as described above. Once pacing was discontinued and atrial fibrillation was observed/stable for 3 minutes, the animals were administered the vehicle or one of the test articles, delivered as a bolus (˜3 mL) directly into a small airway through the intratracheal catheter. Vehicle was only water. In the case of flecainide as the test article, the concentration was 15 mg of flecainide/3 ml of water. Following dosing, the duration between cessation of administration and, if observed, return to sinus rhythm and/or ventricular rate were noted; observations were made for up to 10 minutes.

[4] = physchem; type: physicochemical
Text: To evaluate the solubilities of flecainide acetate and diltiazem hydrochloride in water and to evaluate the acceptability of taste and aftertaste of these two drugs for administration as liquid aerosols.

[5] = Preformulation: properties of solutions in water (pH, isotonicity, appearance); type: physicochemical
Experimental: To evaluate the solubilities of flecainide acetate and diltiazem hydrochloride in water and to evaluate the acceptability of taste and aftertaste of these two drugs for administration as liquid aerosols. The following solution strengths were prepared for taste evaluation: (1) diltiazem hydrochloride—50 mg/ml solution in distilled water; and (2) flecainide acetate—30 mg/ml solution in distilled water.

[6] = human, in vivo
Experimental: The following solution strengths were prepared for taste evaluation: (1) diltiazem hydrochloride—50 mg/ml solution in distilled water; and (2) flecainide acetate—30 mg/ml solution in distilled water.
The Aeroneb®GO device was used because it is a simple-to-use device developed specifically for patients who require respiratory therapy in and away from the home. The device can be used by patients of all ages (infant through adult) and aerosolizes solutions intended for inhalation. Aeroneb® Go works with either an AC wall controller or a battery pack, and can be cleaned with soap and water. More details about this device can be obtained at www.aerogen.com.
Number of subjects: 2 healthy male volunteers
Water was poured into the nebulizer cup, and the nebulizer was turned on. The visible cloud of aerosol generated when the nebulizer was turned on was treated as a qualitative aerosol standard.
About 1 ml of the 30 mg/ml solution was poured into the cup of the nebulizer. The nebulizer was turned on and the resulting aerosol was similar to but not as dense as the aerosol formed with the water alone.
The nebulizer was then placed in the mouth and switched on. Deep lung inhalation was performed through the nebulizer. About 40 μl (˜1.2 mg of flecainide acetate) of the test solution was inhaled. The inhaled dose was sub-therapeutic in nature as it was much less than the regular 100 mg administered as tablets. Flecainide acetate is also available as an IV injection in Europe as 10 mg/ml strength in 15 ml ampoules.
About 1 ml of the 50 mg/ml solution was poured into the cup of the nebulizer. The nebulizer was turned on and the resulting aerosol was similar to but not as dense as the aerosol formed with the water alone.
The nebulizer was then placed in the mouth and a switched on. Deep lung inhalation was performed through the nebulizer. About 40 μl (˜2 mg of diltiazem hydrochloride) of the test solution was inhaled. The inhaled dose was sub-therapeutic in nature as it was much less than the IV injection marketed in the U.S. as 5 mg/ml in 5 ml vials.

[7] = pulmonary dose 0.25 mg/kg body weight
[8] = pulmonary dose between 2-4 mg/kg body weight

CCCCCCCCCCCCCCCC(=O)OC[C@H](COP(=O)([O-])OCC[N+](C)(C)C)OC(=O)CCCCCCCCCCCCCCC [DPPC, dipalmitoylphosphatidylcholine]
solubility of the phospholipid in water [1]: about 10^−10 mol/L

Nc1ncnc2c1ncn2[C@@H]1O[C@H](CO)[C@@H](O)[C@H]1O [adenosine]
effect on the heart ([2]; administered via the lung): did not have any effect on the heart | cardiovascular effect when given intratracheally (summary) [2]: clear response was not observed

COc1ccc([C@@H]2Sc3ccccc3N(CCN(C)C)C(=O)[C@@H]2OC(C)=O)cc1.Cl [diltiazem, diltiazem hydrochloride]
mean arterial blood pressure (MAP) ([3]; dog, in vivo, 0.25 mg/kg): notable drop in mean arterial blood pressure | heart rate ([3]; inhalation route, dose not stated): reduced heart rate | cardiovascular effect when given intratracheally (summary) ([3]; intratracheal): clear cardiovascular effect | conversion of atrial fibrillation to normal sinus rhythm ([3]; dose not stated, hydrochloride): rapidly converted the Atrial Fibrillation to normal sinus rhythm | PQ interval [3, 7]: prolonged the PQ | heart rate [3, 7]: slowed down marginally | conversion of induced atrial fibrillation to normal sinus rhythm ([3]; pulmonary dose 0.25 mg/kg body weight, hydrochloride, 0.25 mg/kg): converted the induced atrial fibrillation to normal sinus rhythm | conversion of induced atrial fibrillation to normal sinus rhythm ([3]; pulmonary dose 0.25 mg/kg body weight, listed as diltiazem HCl, hydrochloride, 0.25 mg/kg): Afib converting | PR interval ([2]; IV or pulmonary route (0.25 mg/kg per FIGS. 14 and 15)): prolonged the PR interval | timing of the electrophysiological change ([2]; IV vs pulmonary): comparable between IV and pulmonary | Mean Arterial Pressure (MAP) ([2]; dog, in vivo, iv, 0.25 mg/kg): dropped significantly in both cases | comparison of pulmonary and IV routes ([2]; pulmonary vs IV (0.25 mg/kg per FIGS. 14 and 15)): comparable in all aspects | solubility [4]: > 90 mg/mL | pH of solution in water ([5]; 3.5 mg/mL solution in water): 6.7 | isotonicity of solution in water (% to isotonic) ([5]; 50 mg/mL in water): about 80% | appearance of solution ([5]; 50 mg/ml solution in distilled water): clear with no visible particulate matter | burning sensations in the mouth, throat, or lungs [6]: No burning sensations was felt in the mouth, throat, or lungs | visible adverse events [6]: No visible adverse events were observed

CN(CCOc1ccc(NS(C)(=O)=O)cc1)CCc1ccc(NS(C)(=O)=O)cc1 [dofetilide]
heart rate ([3]; escalating pulmonary doses of 10-40 mcg/kg body weight): minor reduction in heart rate | ventricular rate ([3]; intratracheal, dose not stated): marginally slowed the ventricular rate | cardiovascular effect when given intratracheally (summary) ([3]; intratracheal): probable effect

COC(=O)CCc1ccc(OCC(O)CNC(C)C)cc1 (stereo not drawn) [esmolol, esmolol HCL]
period of AV block (FIGS. 17, 18) ([2]; 0.5 mg/kg administered via the lung): AV block induced | period of AV block (FIG. 20) ([2]; 0.75 mg/kg administered via the lung): AV block induced | drop in MAP ([2]; delivered via the lung, any of the doses): did not cause a drop in MAP | cardiovascular effect when given intratracheally (summary) [2]: probable effect | PR intervals in the ECG traces ([2]; via the lung (IT), elevating doses): affecting the PR intervals | electrophysiological effects ([2]; via the lung (IT), higher dose 1.0 mg/kg): did not produce the same electrophysiological effects | AV block ([2]; via the lung (IT), lower doses): 2nd degree AV block

O=C(NCC1CCCCN1)c1cc(OCC(F)(F)F)ccc1OCC(F)(F)F (stereo not drawn) [flecainide, flecainide acetate]
conversion of Afib (ECG trace, FIG. 12) ([3]; 2 mg/kg body weight): Afib converting as soon as dosing occurred | conversion of Afib to normal sinus rhythm (ECG trace, FIG. 11) ([3]; 4 mg/kg body weight): Afib converting into normal sinus rhythm | cardiovascular effect when given intratracheally (summary) ([3]; intratracheal): clear cardiovascular effect | conversion of atrial fibrillation to normal sinus rhythm ([3]; dose not stated): rapidly converted the Atrial Fibrillation to normal sinus rhythm | adverse events such as proarrhythmia [3, 8]: Neither dogs exhibited any known adverse events such as proarrhythmia | conversion of induced atrial fibrillation to normal sinus rhythm [3, 8]: converted the induced atrial fibrillation to normal sinus rhythm | drop in mean arterial pressure [3, 8]: None to minimal drop in mean arterial pressure | ventricular rate ([3]; pulmonary, large doses): slower ventricular rates | solubility ([4]; water): ~30 mg/mL | pH of solution in water ([5]; 2.6 mg/mL solution in water): 5.0 | isotonicity of solution in water (% to isotonic) ([5]; 30 mg/mL in water): about 50% | appearance of solution ([5]; 30 mg/ml solution in distilled water): clear with no visible particulate matter | burning sensations in the mouth, throat, or lungs [6]: No burning sensations was felt in the mouth, throat, or lungs | visible adverse events [6]: No visible adverse events were observed
